# PubChem BioAssay (NCI)
#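 In this assay, cells in 96-well plates receive the compound at five concentrations for 48 hours. Endpoints are linearly interpolated between the surrounding concentrations. TGI: total growth inhibition.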
# Columns and labels:
# Assay in all cases: inhibition of tumour cell growth, NCI panel, 48 h
# U251 CNS = system: U251 CNS
# UACC-62 melanoma = system: UACC-62 melanoma
# DMS 114 small cell lung = system: DMS 114 small cell lung
# 786-0 renal = system: 786-0 renal
# KM20L2 colon = system: KM20L2 colon
# HOP-92 NSCLC = system: HOP-92 NSCLC
# DLD-1 colon = system: DLD-1 colon
# SK-MEL-5 melanoma = system: SK-MEL-5 melanoma
# LOX IMVI melanoma = system: LOX IMVI melanoma
# UACC-257 melanoma = system: UACC-257 melanoma
# NCI-H522 lung = system: NCI-H522 lung
# COLO 205 colon = system: COLO 205 colon
# UO-31 renal = system: UO-31 renal
# MOLT-4 leukemia = system: MOLT-4 leukemia
# RXF 393 renal = system: RXF 393 renal
# CCRF-CEM leukemia = system: CCRF-CEM leukemia
# NCI-H460 lung = system: NCI-H460 lung
# SNB-75 CNS = system: SNB-75 CNS
# SN12C renal = system: SN12C renal
# SK-MEL-28 melanoma = system: SK-MEL-28 melanoma
# A549 NSCLC = system: A549 NSCLC
# IGROV1 ovarian = system: IGROV1 ovarian
# HCC-2998 colon = system: HCC-2998 colon
# SF-539 CNS = system: SF-539 CNS
# DMS 273 small cell lung = system: DMS 273 small cell lung
# HOP-18 NSCLC = system: HOP-18 NSCLC
# HOP-62 NSCLC = system: HOP-62 NSCLC
# RPMI-8226 leukemia = system: RPMI-8226 leukemia
# XF 498 CNS = system: XF 498 CNS
# SNB-19 CNS = system: SNB-19 CNS
# SF-268 CNS = system: SF-268 CNS
# SK-OV-3 ovarian = system: SK-OV-3 ovarian
# OVCAR-8 ovarian = system: OVCAR-8 ovarian
# RXF-631 renal = system: RXF-631 renal
# A498 renal = system: A498 renal
# KM12 colon = system: KM12 colon
# SNB-78 CNS = system: SNB-78 CNS
# K-562 leukemia = system: K-562 leukemia
# MALME-3M melanoma = system: MALME-3M melanoma
# ACHN renal = system: ACHN renal
# LXFL 529 NSCLC = system: LXFL 529 NSCLC
# HL-60(TB) leukemia = system: HL-60(TB) leukemia
# SW-620 colon = system: SW-620 colon
# SK-MEL-2 melanoma = system: SK-MEL-2 melanoma
# SR leukemia = system: SR leukemia
# OVCAR-5 ovarian = system: OVCAR-5 ovarian
# M14 melanoma = system: M14 melanoma
# SF-295 CNS = system: SF-295 CNS
# M19-MEL melanoma = system: M19-MEL melanoma
# HCT-116 colon = system: HCT-116 colon
# TK-10 renal = system: TK-10 renal
# EKVX NSCLC = system: EKVX NSCLC
# HT29 colon = system: HT29 colon
# NCI-H23 lung = system: NCI-H23 lung
# HCT-15 colon = system: HCT-15 colon
# OVCAR-3 ovarian = system: OVCAR-3 ovarian
# NCI-H226 lung = system: NCI-H226 lung
# CAKI-1 renal = system: CAKI-1 renal
# OVCAR-4 ovarian = system: OVCAR-4 ovarian
compound,measurement,setting,value
ClCc1ccc(C2OCCO2)cc1,TGI,U251 CNS,17.2 µM
same,TGI,UACC-62 melanoma,> 52 µM
same,TGI,DMS 114 small cell lung,> 42.9 µM
same,TGI,786-0 renal,54.4 µM
same,TGI,KM20L2 colon,> 69 µM
same,TGI,HOP-92 NSCLC,38.2 µM
same,TGI,DLD-1 colon,34.3 µM
same,TGI,SK-MEL-5 melanoma,> 55.5 µM
same,TGI,LOX IMVI melanoma,24.5 µM
same,TGI,UACC-257 melanoma,31.6 µM
same,TGI,NCI-H522 lung,28.6 µM
same,TGI,COLO 205 colon,37.8 µM
same,TGI,UO-31 renal,> 56.2 µM
same,TGI,MOLT-4 leukemia,45.6 µM
same,TGI,RXF 393 renal,> 62 µM
same,TGI,CCRF-CEM leukemia,> 69.7 µM
same,TGI,NCI-H460 lung,39.4 µM
same,TGI,SNB-75 CNS,52.5 µM
same,TGI,SN12C renal,35.3 µM
same,TGI,SK-MEL-28 melanoma,> 58.6 µM
same,TGI,A549 NSCLC,> 80.7 µM
same,TGI,IGROV1 ovarian,> 100 µM
same,TGI,HCC-2998 colon,32 µM
same,TGI,SF-539 CNS,> 56.7 µM
same,TGI,DMS 273 small cell lung,45.3 µM
same,TGI,HOP-18 NSCLC,> 92.2 µM
same,TGI,HOP-62 NSCLC,41.2 µM
same,TGI,RPMI-8226 leukemia,74.6 µM
same,TGI,XF 498 CNS,33.3 µM
same,TGI,SNB-19 CNS,> 59 µM
same,TGI,SF-268 CNS,> 100 µM
same,TGI,SK-OV-3 ovarian,> 82 µM
same,TGI,OVCAR-8 ovarian,36.1 µM
same,TGI,RXF-631 renal,> 100 µM
same,TGI,A498 renal,45.3 µM
same,TGI,KM12 colon,18.4 µM
same,TGI,SNB-78 CNS,> 31.6 µM
same,TGI,K-562 leukemia,> 31.6 µM
same,TGI,MALME-3M melanoma,49.9 µM
same,TGI,ACHN renal,> 62 µM
same,TGI,LXFL 529 NSCLC,37.2 µM
same,TGI,HL-60(TB) leukemia,12.5 µM
same,TGI,SW-620 colon,34.4 µM
same,TGI,SK-MEL-2 melanoma,42.2 µM
same,TGI,SR leukemia,> 79.7 µM
same,TGI,OVCAR-5 ovarian,> 63.9 µM
same,TGI,M14 melanoma,34.3 µM
same,TGI,SF-295 CNS,35.5 µM
same,TGI,M19-MEL melanoma,37.8 µM
same,TGI,HCT-116 colon,> 52.1 µM
same,TGI,TK-10 renal,> 75.3 µM
same,TGI,EKVX NSCLC,> 63 µM
same,TGI,HT29 colon,32.6 µM
same,TGI,NCI-H23 lung,17.2 µM
same,TGI,HCT-15 colon,34.7 µM
same,TGI,OVCAR-3 ovarian,49.2 µM
same,TGI,NCI-H226 lung,40.1 µM
CCN(CC)/[N+]([O-])=N/O,TGI,UACC-62 melanoma,> 100 µM
same,TGI,KM20L2 colon,> 100 µM
same,TGI,HOP-92 NSCLC,> 100 µM
same,TGI,SK-MEL-5 melanoma,> 100 µM
same,TGI,LOX IMVI melanoma,> 100 µM
same,TGI,UACC-257 melanoma,> 100 µM
same,TGI,NCI-H522 lung,> 100 µM
same,TGI,UO-31 renal,> 100 µM
same,TGI,MOLT-4 leukemia,> 100 µM
same,TGI,RXF 393 renal,> 100 µM
same,TGI,CCRF-CEM leukemia,> 100 µM
same,TGI,NCI-H460 lung,> 100 µM
same,TGI,SN12C renal,> 100 µM
same,TGI,SK-MEL-28 melanoma,> 100 µM
same,TGI,A549 NSCLC,> 100 µM
same,TGI,IGROV1 ovarian,> 100 µM
same,TGI,HCC-2998 colon,> 100 µM
same,TGI,SF-539 CNS,> 100 µM
same,TGI,DMS 273 small cell lung,> 100 µM
same,TGI,HOP-62 NSCLC,> 100 µM
same,TGI,XF 498 CNS,> 100 µM
same,TGI,SNB-19 CNS,> 100 µM
same,TGI,SF-268 CNS,> 100 µM
same,TGI,SK-OV-3 ovarian,> 100 µM
same,TGI,OVCAR-8 ovarian,> 100 µM
same,TGI,RXF-631 renal,> 100 µM
same,TGI,A498 renal,> 100 µM
same,TGI,CAKI-1 renal,> 100 µM
same,TGI,KM12 colon,> 100 µM
same,TGI,SNB-78 CNS,> 100 µM
same,TGI,K-562 leukemia,> 100 µM
same,TGI,ACHN renal,> 100 µM
same,TGI,LXFL 529 NSCLC,> 100 µM
same,TGI,HL-60(TB) leukemia,> 100 µM
same,TGI,SW-620 colon,> 100 µM
same,TGI,SK-MEL-2 melanoma,> 100 µM
same,TGI,SR leukemia,> 100 µM
same,TGI,OVCAR-5 ovarian,> 100 µM
same,TGI,M14 melanoma,> 100 µM
same,TGI,SF-295 CNS,> 100 µM
same,TGI,M19-MEL melanoma,> 100 µM
same,TGI,HCT-116 colon,> 100 µM
same,TGI,TK-10 renal,> 100 µM
same,TGI,EKVX NSCLC,> 100 µM
same,TGI,HT29 colon,> 100 µM
same,TGI,NCI-H23 lung,> 100 µM
same,TGI,HCT-15 colon,> 100 µM
same,TGI,OVCAR-3 ovarian,> 100 µM
same,TGI,NCI-H226 lung,> 100 µM
COc1cc(/C=C/c2ccc(OC)c(OC)c2OC)cc(OC)c1OC,TGI,U251 CNS,36.2 µM
same,TGI,UACC-62 melanoma,28.1 µM
same,TGI,DMS 114 small cell lung,60.9 µM
same,TGI,786-0 renal,51.6 µM
same,TGI,KM20L2 colon,55.3 µM
same,TGI,HOP-92 NSCLC,31.8 µM
same,TGI,DLD-1 colon,> 100 µM
same,TGI,SK-MEL-5 melanoma,28.5 µM
same,TGI,LOX IMVI melanoma,30.8 µM
same,TGI,UACC-257 melanoma,52.8 µM
same,TGI,NCI-H522 lung,> 51.6 µM
same,TGI,COLO 205 colon,33.3 µM
same,TGI,UO-31 renal,46.3 µM
same,TGI,MOLT-4 leukemia,> 62 µM
same,TGI,RXF 393 renal,46.3 µM
same,TGI,CCRF-CEM leukemia,85.8 µM
same,TGI,NCI-H460 lung,56.2 µM
same,TGI,SNB-75 CNS,56.7 µM
same,TGI,SN12C renal,> 69.5 µM
same,TGI,SK-MEL-28 melanoma,37.7 µM
same,TGI,A549 NSCLC,> 88.9 µM
same,TGI,IGROV1 ovarian,83.3 µM
same,TGI,HCC-2998 colon,18.6 µM
same,TGI,SF-539 CNS,37 µM
same,TGI,DMS 273 small cell lung,41 µM
same,TGI,HOP-18 NSCLC,44.9 µM
same,TGI,HOP-62 NSCLC,32.9 µM
same,TGI,RPMI-8226 leukemia,37.1 µM
same,TGI,XF 498 CNS,72.3 µM
same,TGI,SNB-19 CNS,97.9 µM
same,TGI,SF-268 CNS,> 64.2 µM
same,TGI,SK-OV-3 ovarian,57.6 µM
same,TGI,OVCAR-8 ovarian,> 87.1 µM
same,TGI,RXF-631 renal,51.2 µM
same,TGI,A498 renal,> 73.9 µM
same,TGI,CAKI-1 renal,> 96.4 µM
same,TGI,KM12 colon,57.3 µM
same,TGI,SNB-78 CNS,46.4 µM
same,TGI,OVCAR-4 ovarian,70.9 µM
same,TGI,K-562 leukemia,> 69.3 µM
same,TGI,MALME-3M melanoma,48.7 µM
same,TGI,ACHN renal,> 92.2 µM
same,TGI,LXFL 529 NSCLC,54.9 µM
same,TGI,HL-60(TB) leukemia,> 68 µM
same,TGI,SW-620 colon,> 92.6 µM
same,TGI,SK-MEL-2 melanoma,36.1 µM
same,TGI,SR leukemia,78.5 µM
same,TGI,OVCAR-5 ovarian,74.4 µM
same,TGI,M14 melanoma,77 µM
same,TGI,SF-295 CNS,55.7 µM
same,TGI,M19-MEL melanoma,51 µM
same,TGI,HCT-116 colon,27.9 µM
same,TGI,TK-10 renal,> 82.9 µM
same,TGI,EKVX NSCLC,> 70.8 µM
same,TGI,HT29 colon,> 63.9 µM
same,TGI,NCI-H23 lung,69.2 µM
same,TGI,HCT-15 colon,> 57.2 µM
same,TGI,OVCAR-3 ovarian,39.3 µM
same,TGI,NCI-H226 lung,39.7 µM
